Experiments:
human SERT = biological target: T1, human SERT (Homo sapiens, UniProt P31645); assay: Human SERT binding (3H-citalopram displacement, HEK293 membranes); conditions: 3H-citalopram 3.1 nM, rt for 1 h
T1 construct: expressed in transfected cells; host or cells: HEK293
Procedure: Homogenized HEK293 (Human Embryonic Kidney) membranes expressing the human SERT were incubated with ^3H-citalopram (SERT) at rt for 1 h in 50 mM Tris, 120 mM NaCl, 5 mM KCl (pH 7.4). Nonspecific binding was determined in the presence of 10 μM fluoxetine for the SERT. The membranes were washed and the radioactivity was counted as above. Calculations for Ki at the SERT were based on a Kd value for ^3H-citalopram and a ligand concentration of 3.1 nM.

human H3 receptor = biological target: T2, human H3 receptor (Homo sapiens, UniProt Q9Y5N1); assay: H3 receptor binding (N-[3H]-α-methylhistamine displacement, SK-N-MC cell membranes); conditions: 0.8 nM N-[3H]-α-methylhistamine, 60 min at 25° C.
T2 construct: expressed in transfected cells
Procedure: Binding of compounds to the cloned human H3 receptor, stably expressed in SK-N-MC cells, was performed (Lovenberg, T. W. et al. J. Pharmacol. Exp. Ther. 2000, 293, 771-778). Briefly, cell pellets from SK-N-MC cells expressing the human H3 receptor were homogenized in 50 mM Tris-HCl/5 mM EDTA and re-centrifuged at 30,000 g for 30 min. Pellets were re-homogenized in 50 mM Tris/5 mM EDTA (pH 7.4). Membranes were incubated with 0.8 nM N—[^3H]-α-methylhistamine plus/minus test compounds for 60 min at 25° C. and harvested by rapid filtration over GF/C glass fiber filters (pretreated with 0.3% polyethylenimine) followed by four washes with ice-cold buffer. Nonspecific binding was defined in the presence of 10 μM histamine.

Rat SERT = biological target: T3, Rat SERT (Rattus norvegicus, UniProt P31652); assay: Rat brain SERT binding ([3H]-Citalopram displacement, rat brain membranes); conditions: 0.6 nM [3H]-Citalopram, 60 min at 25° C.
T3 construct: A rat brain without cerebellum (Zivic Laboratories, Inc.—Pittsburgh, Pa.) was homogenized; tissue Zivic Laboratories, Inc; host or cells: rat brain without cerebellum
Procedure: A rat brain without cerebellum (Zivic Laboratories, Inc.—Pittsburgh, Pa.) was homogenized in a 52.6 mM Tris pH 8/126.4 mM NaCl/5.26 mM KCl mixture and centrifuged at 1,000 rpm for 5 min. The supernatant was removed and re-centrifuged at 15,000 rpm for 30 min. Pellets were re-homogenized in a 52.6 mM Tris pH8/126.4 mM NaCl/5.26 mM KCl mixture. Membranes were incubated with 0.6 nM [^3H]-Citalopram plus/minus test compounds for 60 min at 25° C. and harvested by rapid filtration over GF/C glass fiber filters (pretreated with 0.3% polyethylenimine) followed by four washes with ice-cold buffer. Nonspecific binding was defined in the presence of 100 μM fluoxetine.

T1 sequence (P31645 whole entry): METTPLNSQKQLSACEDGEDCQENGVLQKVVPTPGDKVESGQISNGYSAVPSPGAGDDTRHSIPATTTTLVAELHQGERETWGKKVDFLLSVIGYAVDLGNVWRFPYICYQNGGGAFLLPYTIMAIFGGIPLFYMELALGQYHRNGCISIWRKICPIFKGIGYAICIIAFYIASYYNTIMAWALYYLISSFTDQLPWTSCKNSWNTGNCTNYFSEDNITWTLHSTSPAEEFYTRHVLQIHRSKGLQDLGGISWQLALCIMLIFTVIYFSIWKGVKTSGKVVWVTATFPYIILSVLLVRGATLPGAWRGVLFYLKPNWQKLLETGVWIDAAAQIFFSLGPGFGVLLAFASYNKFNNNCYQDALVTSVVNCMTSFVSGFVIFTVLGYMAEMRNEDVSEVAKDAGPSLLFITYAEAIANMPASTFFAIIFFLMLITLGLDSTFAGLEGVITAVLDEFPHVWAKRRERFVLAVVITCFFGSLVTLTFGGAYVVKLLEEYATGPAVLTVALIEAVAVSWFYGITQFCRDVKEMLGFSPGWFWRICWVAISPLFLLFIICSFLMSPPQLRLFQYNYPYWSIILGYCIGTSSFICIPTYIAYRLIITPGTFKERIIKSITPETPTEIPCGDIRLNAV
T3 sequence (P31652 whole entry): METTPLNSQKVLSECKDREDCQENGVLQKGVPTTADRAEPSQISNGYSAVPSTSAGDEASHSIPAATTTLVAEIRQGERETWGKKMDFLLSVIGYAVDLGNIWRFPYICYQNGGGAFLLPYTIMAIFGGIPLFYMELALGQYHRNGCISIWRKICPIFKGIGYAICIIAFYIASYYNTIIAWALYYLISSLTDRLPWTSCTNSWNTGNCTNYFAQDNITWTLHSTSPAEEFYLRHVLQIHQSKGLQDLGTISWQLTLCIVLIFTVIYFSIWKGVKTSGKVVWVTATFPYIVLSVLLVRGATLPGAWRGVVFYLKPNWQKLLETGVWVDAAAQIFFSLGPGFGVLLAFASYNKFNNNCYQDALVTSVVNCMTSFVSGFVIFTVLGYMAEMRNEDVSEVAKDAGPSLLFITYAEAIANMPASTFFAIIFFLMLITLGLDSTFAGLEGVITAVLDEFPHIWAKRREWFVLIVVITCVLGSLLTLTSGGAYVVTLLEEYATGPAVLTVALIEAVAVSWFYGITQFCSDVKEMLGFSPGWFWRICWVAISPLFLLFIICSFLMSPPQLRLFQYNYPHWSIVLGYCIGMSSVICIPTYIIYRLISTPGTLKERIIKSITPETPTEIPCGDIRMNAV
T2 sequence (Q9Y5N1 whole entry): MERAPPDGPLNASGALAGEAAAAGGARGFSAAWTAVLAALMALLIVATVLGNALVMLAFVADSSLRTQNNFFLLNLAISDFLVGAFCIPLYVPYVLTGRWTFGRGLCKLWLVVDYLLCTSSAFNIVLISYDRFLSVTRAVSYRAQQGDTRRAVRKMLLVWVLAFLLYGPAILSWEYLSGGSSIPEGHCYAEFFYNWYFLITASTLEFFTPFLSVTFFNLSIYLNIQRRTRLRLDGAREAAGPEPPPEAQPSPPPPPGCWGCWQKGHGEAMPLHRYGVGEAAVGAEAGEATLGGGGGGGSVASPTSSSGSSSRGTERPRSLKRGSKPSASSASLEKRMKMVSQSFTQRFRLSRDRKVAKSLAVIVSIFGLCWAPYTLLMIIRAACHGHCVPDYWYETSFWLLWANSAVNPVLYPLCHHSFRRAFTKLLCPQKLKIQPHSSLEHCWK

| Ki (human SERT) | Ki (human H3 receptor) | Ki (Rat SERT) | Compound |
| --- | --- | --- | --- |
| 6 nM | 32 nM | 10 nM | CN(C)CCC(Oc1ccc(C(F)(F)F)cc1)c1ccc(CCCCN2CCOCC2)cc1 (stereo not drawn) [Example 35, Dimethyl-[3-[4-(4-morpholin-4-yl-butyl)-phenyl]-3-(4-trifluoromethyl-phenoxy)-propyl]-amine] |
| 16 nM | 0.6 nM | 1.5 nM | Cc1ccc(OC(CCN(C)C)c2ccc(OCCCN3CCCCC3)cc2)cc1 (stereo not drawn) [Example 6, Dimethyl-{3-[4-(3-piperidin-1-yl-propoxy)-phenyl]-3-p-tolyloxy-propyl}-amine] |
| 10 nM | 0.9 nM | 1.3 nM | CSc1ccc(OC(CCN(C)C)c2ccc(OCCCN3CCCCC3)cc2)cc1 (stereo not drawn) [Example 4, Dimethyl-{3-(4-methylsulfanyl-phenoxy)-3-[4-(3-piperidin-1-yl-propoxy)-phenyl]-propyl}-amine] |
| 21 nM | 0.8 nM | 7 nM | NCCC(Oc1ccccc1)c1ccc(OCCCN2CCCCC2)cc1 (stereo not drawn) [Example 68, 3-Phenoxy-3-[4-(3-piperidin-1-yl-propoxy)-phenyl]-propylamine] |
| 46 nM | 1 nM | 1.3 nM | CN(C)CCC(Oc1ccc(F)cc1)c1ccc(OCCCN2CCCCC2)cc1 (stereo not drawn) [Example 10, {3-(4-Fluoro-phenoxy)-3-[4-(3-piperidin-1-yl-propoxy)-phenyl]-propyl}-dimethyl-amine] |
| 10 nM | 12 nM | 7 nM | CC(C)N1CCN(CCCCc2ccc(C(CCN(C)C)Oc3ccc(C(F)(F)F)cc3)cc2)CC1 (stereo not drawn) [Example 34, [3-[4-[4-(4-Isopropyl-piperazin-1-yl)-butyl]-phenyl]-3-(4-trifluoromethyl-phenoxy)-propyl]-dimethyl-amine] |
| 21 nM | 0.9 nM | 8 nM | CN(C)CCC(Oc1ccccc1Cl)c1ccc(OCCCN2CCCCC2)cc1 (stereo not drawn) [Example 17, {3-(2-Chloro-phenoxy)-3-[4-(3-piperidin-1-yl-propoxy)-phenyl]-propyl}-dimethyl-amine] |
| 22 nM | 49 nM | 6 nM | CC(C)N1CCN(CCC#Cc2ccc(C(CCN(C)C)Oc3ccccc3)cc2)CC1 (stereo not drawn) [Example 22, (3-{4-[4-(4-Isopropyl-piperazin-1-yl)-but-1-ynyl]-phenyl}-3-phenoxy-propyl)-dimethyl-amine] |
| 34 nM | 11 nM | 18 nM | CN(C)CCC(Oc1ccccc1)c1ccc(C#CCCN2CCSCC2)cc1 (stereo not drawn) [Example 24, Dimethyl-{3-phenoxy-3-[4-(4-thiomorpholin-4-yl-but-1-ynyl)phenyl]-propyl}-amine] |
| 7 nM | 1.7 nM | 5 nM | CN(C)CCC(Oc1ccc(Br)cc1)c1ccc(OCCCN2CCCCC2)cc1 (stereo not drawn) [Example 11, {3-(4-Bromo-phenoxy)-3-[4-(3-piperidin-1-yl-propoxy)-phenyl]-propyl}-dimethyl-amine] |
| 4000 nM | 0.2 nM | 633 nM | c1ccc(OC(CCN2CCCC2)c2ccc(OCCCN3CCCCC3)cc2)cc1 (stereo not drawn) [Example 73, 1-{3-[4-(1-Phenoxy-3-pyrrolidin-1-yl-propyl)-phenoxy]-propyl}-piperidine] |
| 1330 nM | 0.7 nM | 65 nM | CN(C)CCC(Oc1cccc(OCCCN2CCCCC2)c1)c1ccccc1 (stereo not drawn) [Example 37, Dimethyl-{3-phenyl-3-[3-(3-piperidin-1-yl-propoxy)-phenoxy]-propyl}-amine] |
| 199 nM | 3 nM | 16 nM | CN(C)CCC(Oc1ccccc1)c1cccc(OCCCN2CCCCC2)c1 (stereo not drawn) [Example 3, Dimethyl-[3-phenoxy-3-[3-(3-piperidin-1-yl-propoxy)-phenyl]-propyl]-amine] |
| 154 nM | 2 nM | 16 nM | CN(C)CCC(Oc1ccccc1)c1cccc(C#CCCN2CCCCC2)c1 (stereo not drawn) [Example 31, Dimethyl-{3-phenoxy-3-[3-(4-piperidin-1-yl-but-1-ynyl)-phenyl]-propyl}-amine] |

— patent US20080139564A1, “SUBSTITUTED PHENYL PROPYL AMINES AS HISTAMINE H3 RECEPTOR AND SEROTONIN TRANSPORTER MODULATORS” (priority 2006, published 2008)
